Measurements: PMC11013010, “Serendipitous Identification of Azine Anticancer Agents Using a Privileged Scaffold Morphing Strategy” (Molecules, 2024)
Where “and” joins values, the source holds several entries; their conditions need not be identical. Equal values may be shown once.

Experiments:
[1] = Kinetic aqueous solubility; type: physicochemical; settings: Milli-Q water, 25 °C, water, kinetic from dmso stock; Mill-Q H2O, 3 h, RT; LOD 0.1 µg/mL
Procedure: For the quantitative analysis, a UV/LC-MS system was used. LC analysis was performed through an Agilent 1260 Infinity HPLC-DAD system (Agilent Technologies, Palo Alto, CA, USA), which constituted of a vacuum solvent degassing unit, a binary high-pressure gradient pump, and a UV detector, that was connected to an Agilent MSD 6130 system (Agilent Technologies, Palo Alto, CA, USA). The Agilent 1260 series mass spectra detection (MSD) single-quadrupole instrument was equipped with the orthogonal spray API-ES (Agilent Technologies, Palo Alto, CA, USA). Nitrogen was used as a nebulizing and drying gas. Chromatographic separation was performed using a Phenomenex Kinetex EVO C18-100 Å (150 × 4.6 mm, 5 μm particle size) at 25 °C and a gradient elution with a binary solution; eluent A was H2O, while eluent B consisted of ACN (both eluents were acidified with FA 0.1% v/v). […] UV detection was monitored at 254 nm. Spectra were acquired over the scan range m/z 100–1500 in positive mode.
DMSO-stock compounds’ solutions were diluted with Mill-Q H2O to a final concentration of 200 μM. The percentage of DMSO never exceeded 2% v/v. Samples were incubated under gentle shaking at 25 °C (RT) conditions for 3 h. The suspensions were filtered using a 0.45 µm nylon filter (Acrodisc, VWR, Radnor, PE, USA), and the amount of solubilized compound was determined with the HPLC-UV-MS method reported above. The quantification of the solubilized compound was made with the appropriate calibration curve realized with stock solutions in DMSO (0.1–100 µg/mL). The limit of detection (LOD) was quantified at 0.1 µg/mL.

[2] = Cytotoxicity assay (CellTiter Glo) on colon epithelial carcinoma cells; settings: human, Caco-2
[3] = tested on: Caco-2 cells; assay: as above; settings: ratio CC50 FB789 / CC50 Caco-2
[4] = Parallel artificial membrane permeability assay (PAMPA); type: in vitro ADME; settings: GI, pH 7.4, 5 h, RT
Procedure: To evaluate the apparent permeability of tested compounds, a DMSO stock solution [1 mM] of each derivative was prepared and then diluted 1:1 v/v with phosphate buffer (PBS 25 mM, pH 7.4) in order to make the donor solutions. According to the protocol already published, the gastrointestinal (GI) phospholipidic bilayer was mimed through adding a 1% w/v dodecane solution of phosphatidylcholine (PC). The sandwich plates were assembled and incubated for 5 h at RT. At the end time point, the amount of compound passed through the phospholipid bilayer was measured using HPLC-UV/MS. Finally, apparent permeability (Papp) and membrane retention (MR%) were calculated as previously described.

[5] = Metabolic stability assay with human liver microsomes; type: in vitro ADME; settings: 1 h, 37 °C, 50 µM
Procedure: A DMSO solution of selected compounds was incubated in the presence of phosphate buffer (25 mM, pH 7.4), human liver microsomal protein (200 µg/mL), and an NADPH regenerating system in MgCl2 (48 mM) at a final concentration of 50 µM. The metabolic reactions were conducted for 1 h under shaking at 37 °C and then stopped by adding cold acetonitrile (ACN). Centrifuging the mixtures at 5000 rpm, the supernatant was separated, dried under nitrogen flow, and finally suspended in methanol (MeOH). The amount of the parent drug and the metabolites were determined as previously described.

[6] = Cytotoxicity assay (CellTiter Glo) on normal fibroblasts; type: cell-based, human; settings: human, FB789 normal fibroblast cells
Procedure: (§1) Cell-based assays were carried out on the normal human fibroblast FB789 cell line (kindly provided by Elena Dell’Ambra from IRCCS Istituto Dermopatico dell’Immacolata, Rome), on the Huh7 hepatocarcinoma cell line (kindly provided by Istituto Toscano Tumori, Core Research Laboratory, Siena, Italy), on the Caco-2 adenocarcinoma colorectal cell line (ATCC catalog. n. HTB-37), on the suspension H9 cell line (repository code ARP0001, NIBSC Centre for AIDS reagents) and on the adherent TZM-bl cell line (repository code ARP5011, NIBSC Centre for AIDS reagents).
The FB789 was cultured in Dulbecco’s Modified Eagle Medium (DMEM) and Ham’s F10 in a ratio of 50%, supplemented with 10% FBS, 2 mM L-glutamine, and 10,000 unit/mL penicillin/streptomycin.
(§2) The cytotoxicity of all investigated compounds was assayed in all cells lines as previously described. Briefly, confluent cells were treated with decreasing compound concentrations for 48h. The final DMSO concentration used was never greater than 0.5% v/v. Each experiment was performed in duplicate and repeated in two independent experiments. Cell viability was calculated using the CellTiter Glo 2.0 kit (Promega, Madison, WI, USA) and luminescence values signal obtained from cells treated with serial dilution of the compounds were measured through the GloMax® Discover Multi mode Microplate Reader (Promega) and elaborated with GraphPad PRISM software version 9.0 (La Jolla, San Diego, CA, USA). […] A non-toxic dose of each compound was used as the starting concentration in the antiviral activity assay.

[7] = Cytotoxicity assay (CellTiter Glo) on lymphoma cells; settings: human
[8] = tested on: H9 cells; assay: as above; settings: ratio CC50 FB789 / CC50 H9
[9] = Plasma stability assay; type: in vitro ADME; settings: human plasma, 24 h, 37 °C; % of Time 0
Procedure: A DMSO solution of each compound was incubated at a final concentration of 100 µM at 37 °C under shaking with HEPES buffer (25 mM, 140 mM NaCl, pH 7.4) and human plasma. At time 0 and after 24 h, samples were collected from the reaction mixtures and treated with cold ACN. After centrifugation at 5000 rpm for 10 min, the supernatant was collected, and the amount of unmodified compound was determined using the HLPC-UV/MS method described above. Modified compounds were calculated using time zero as 100% of the unmodified compound.

[10] = Cytotoxicity assay (CellTiter Glo) on hepatocarcinoma cells; type: cell-based; settings: human, Huh7 hepatocarcinoma cells, Huh7 hepatocarcinoma
Procedure: as §1
(§3) High glucose Dulbecco’s Modified Eagle Medium with sodium pyruvate and L-glutamine (DMEM; Euroclone) was used to grow Huh-7 and TZM-bl. Minimum Essential Eagle Medium (EMEM; Euroclone) was used to propagate Caco-2. DMEM and EMEM were supplemented with 10% fetal bovine serum (FBS; Euroclone) and 1% penicillin/streptomycin (Pen/Strep, Euroclone). The growth medium with a lower concentration of FBS (1%) was used for viral propagation, cytotoxic and antiviral experiments in adherent cell lines. […] All cell lines were grown at 37 °C in a 5% CO2 atmosphere in a humidified incubator.
as §2

[11] = tested on: Huh7 cells; assay: as above; type: cell-based; settings: ratio CC50 FB789 / CC50 Huh7
Procedure: as §1, §3, §2

[12] = pyrimidines and pyridines, read out at 48 h, mean ± SD
[13] = triazines 1-9, read-out 48 h, Cell-Titer Glo

SMILES | solubility kinetic at 3 h [1] [µg/mL] | CC50 at 48 h [2] [µM] | TSI Caco-2 ([3]; pyrimidines and pyridines) | MR (membrane retention) [4] | Papp at 5 h, 0.5 mM [4] [×10⁻⁶ cm/s] | Metabolic Stability [5] [%] | CC50 at 48 h [6, 12] [µM] | CC50 at 48 h [7] [µM] | TSI H9 ([8]; pyrimidines and pyridines) | Plasmatic Stability [9] [%] | CC50 at 48 h [10, 12] [µM] | TSI Huh7 ([11]; pyrimidines and pyridines) | TSI Caco-2 ([3]; triazines 1-9) | CC50 at 48 h [6, 13] [µM] | TSI H9 ([8]; triazines 1-9) | CC50 at 48 h ([10]; triazines 1-9, read-out 48 h) [µM] | TSI Huh7 ([11]; triazines 1-9)
Oc1ccccc1/C=N/Nc1cc(Nc2ccc(F)cc2)nc(Nc2ccc(F)cc2)n1 [Compound 19a] | < 0.1 | 2 ± 1 | 7.0 | 20.99% and 20.91 ± 1.75% | 3.59 ± 0.21 | >99.9 | 14 ± 3 | 31 ± 8 | 0.5 | 86.64 ± 0.17 | 1 ± 0.3 | 14.0 | – | – | – | – | –
Cc1cccc(/C=N/Nc2cc(N3CCOCC3)nc(N3CCOCC3)n2)c1 [Compound 14b] | – | 11 ± 2 | 0.8 | – | – | – | 9 ± 1 | 14 ± 7 | – | – | 8 ± 4 | – | – | – | – | – | –
Cc1cccc(/C=N/Nc2cc(N3CCOCC3)nc(N3CCOCC3)c2)c1 [Compound 27b] | – | 30 ± 2 | 2.7 | – | – | – | 81 ± 2 | 50 ± 4 | – | – | 39 ± 3 | – | – | – | – | – | –
Oc1ccccc1/C=N/Nc1cc(N2CCOCC2)nc(N2CCOCC2)c1 [Compound 27a] | – | 29 ± 2 | – | – | – | – | 11 ± 3 | 76 ± 4 | – | – | 44 ± 5 | – | – | – | – | – | –
Cc1cccc(/C=N/Nc2nc(Nc3ccc(F)cc3)nc(N3CCOCC3)n2)c1 [Compound 6] | – | 22 ± 2 | – | – | – | – | – | > 100 | – | – | – | – | 4.5 | 100 ± 8 | <1.0 | 47 ± 5 | 2.1
CC(=O)Nc1ccc(/C=N/Nc2nc(Nc3ccc(F)cc3)nc(N3CCOCC3)n2)cc1 [Compound 5] | – | 70 ± 6 | – | – | – | – | – | 30 ± 5 | – | – | – | – | 0.4 | 27 ± 3 | 0.9 | 45 ± 6 | 0.6
CC(=O)Nc1ccc(/C=N/Nc2nc(Nc3ccc(F)cc3)nc(Nc3ccc(F)cc3)n2)cc1 [Compound 8] | – | > 200 | – | – | – | – | – | > 100 | – | – | – | – | <0.3 | 57 ± 7 | <0.6 | > 200 | <0.3
Oc1ccccc1/C=N/Nc1cc(Nc2ccc(F)cc2)nc(Nc2ccc(F)cc2)c1 [Compound 33a] | – | 12 ± 4 | 0.03 | – | – | – | 0.3 ± 0.3 | 43 ± 9 | 0.01 | – | 18 ± 5 | 0.02 | – | – | – | – | –
